In ChEMBL document CHEMBL3739410, “The natural product brartemicin is a high affinity ligand for the carbohydrate-recognition domain of the macrophage receptor mincle” (Medchemcomm, 2015):

Species on record: Bos taurus
Experiment: Displacement of radioiodinated Man31-bovine serum albumin from biotin-tagged bovine mincle CRD after 2 hr by scintillation counting analysis relative to alpha,alpha-trehalose

Compound Cc1cc(O)cc(O)c1C(=O)OC[C@H]1O[C@H](O[C@H]2O[C@H](COC(=O)c3c(C)cc(O)cc3O)[C@@H](O)[C@H](O)[C@H]2O)[C@H](O)[C@@H](O)[C@@H]1O has a Ratio Ki of 290.
